The values that follow are results of earlier work, collected in patent US10138195B2, “Organic compounds” (Givaudan, S. A., priority 2014, dated 2018).

For data set [1] the following is noted: dogs.
The test system of data set [2] is reproductive organs of male rats.
The conditions of data set [3]: rats.
The subject of data set [4] is reproductive organs of male dogs.
Data set [5] has as its system glucose synthesis and fatty acid synthesis. The conditions noted are these: in vitro (McCune et al).
The subject of the next data set is male rats. Particulars: male rats (Hunter et al.; Cagen et al.).

Like-named read-outs stand apart in the source and are kept apart here.

For the compound `CC(C=O)Cc1ccc(C(C)(C)C)cc1` (stereo not drawn) [Lilial™, 3-(4-tert-butylphenyl)-2-methylpropanal], the Effects in studies result in the data set with guinea-pigs, in the data set with mice and in the data set with primates was “No effects” throughout. The Enzymatic degradation product result in data set [1] was “enzymatically degraded in rats and dogs to tert-butyl benzoic acid (t-BBA)”; in data set [3] it was “enzymatically degraded in rats and dogs to tert-butyl benzoic acid (t-BBA)”. Also, the “Effects on the reproductive organs” value in data set [2] and in data set [4] was “toxic effects on the reproductive organs” each time.
For the compound `CC(C)(C)c1ccc(C(=O)O)cc1` [tert-butyl benzoic acid], in data set [5], the “Effect on glucose synthesis and fatty acid synthesis” value was “inhibit glucose synthesis and fatty acid synthesis”. Moreover, in the data set on male rats, the Testicular effects entry is on record as “cause testicular effects”.
